Columns and labels:
Assay type in all cases: cell-based
[1] = test system: Kg-1a; assay: CT-Glo cytotoxicity assay, Kg-1a cells; details: Homo sapiens, 72-h CT-Glo
Description: The molecules with the highest docking scores were assayed for IC50 values. Cultures were tested for cytotoxicity using the CellTiter-Glo assay (CT-Glo cytotoxicity assay; Promega, Madison, Wis.), a luminescence-based homogeneous method for determining the number of viable cells in culture based on quantitation of the ATP present, which signals the presence of metabolically active cells (Corsino, et al., A novel class of cyclin-dependent kinase inhibitors identified by molecular docking act through a unique mechanism. J Biol Chem 2009; 284: 29945-55; Homsi, et al., Src activation in melanoma and Src inhibitors as therapeutic agents in melanoma. Melanoma Res 2009; 19: 167-75). All cells were assayed at log-phase growth conditions. Luminescence was measured with a Synergy 4 microplate reader (Bio-Tek Instruments, Inc., Winooski, Vt.). IC50 values were determined using a sigmoidal equilibrium model regression using XLfit version 5.2 (ID Business Solutions Ltd., Surrey, UK) (Corsino, et al., A novel class of cyclin-dependent kinase inhibitors identified by molecular docking act through a unique mechanism. J Biol Chem 2009; 284: 29945-55).

[2] = target: T1, CRM1-topo IIα complexes (Homo sapiens, UniProt P11388); assay: Co-immunoprecipitation of CRM1 with topo IIα
T1 construct: CRM1-topo IIα complexes were isolated from cells by immunoprecipitation; endogenous in cells
T1 sequence (P11388 whole entry, one chain of several): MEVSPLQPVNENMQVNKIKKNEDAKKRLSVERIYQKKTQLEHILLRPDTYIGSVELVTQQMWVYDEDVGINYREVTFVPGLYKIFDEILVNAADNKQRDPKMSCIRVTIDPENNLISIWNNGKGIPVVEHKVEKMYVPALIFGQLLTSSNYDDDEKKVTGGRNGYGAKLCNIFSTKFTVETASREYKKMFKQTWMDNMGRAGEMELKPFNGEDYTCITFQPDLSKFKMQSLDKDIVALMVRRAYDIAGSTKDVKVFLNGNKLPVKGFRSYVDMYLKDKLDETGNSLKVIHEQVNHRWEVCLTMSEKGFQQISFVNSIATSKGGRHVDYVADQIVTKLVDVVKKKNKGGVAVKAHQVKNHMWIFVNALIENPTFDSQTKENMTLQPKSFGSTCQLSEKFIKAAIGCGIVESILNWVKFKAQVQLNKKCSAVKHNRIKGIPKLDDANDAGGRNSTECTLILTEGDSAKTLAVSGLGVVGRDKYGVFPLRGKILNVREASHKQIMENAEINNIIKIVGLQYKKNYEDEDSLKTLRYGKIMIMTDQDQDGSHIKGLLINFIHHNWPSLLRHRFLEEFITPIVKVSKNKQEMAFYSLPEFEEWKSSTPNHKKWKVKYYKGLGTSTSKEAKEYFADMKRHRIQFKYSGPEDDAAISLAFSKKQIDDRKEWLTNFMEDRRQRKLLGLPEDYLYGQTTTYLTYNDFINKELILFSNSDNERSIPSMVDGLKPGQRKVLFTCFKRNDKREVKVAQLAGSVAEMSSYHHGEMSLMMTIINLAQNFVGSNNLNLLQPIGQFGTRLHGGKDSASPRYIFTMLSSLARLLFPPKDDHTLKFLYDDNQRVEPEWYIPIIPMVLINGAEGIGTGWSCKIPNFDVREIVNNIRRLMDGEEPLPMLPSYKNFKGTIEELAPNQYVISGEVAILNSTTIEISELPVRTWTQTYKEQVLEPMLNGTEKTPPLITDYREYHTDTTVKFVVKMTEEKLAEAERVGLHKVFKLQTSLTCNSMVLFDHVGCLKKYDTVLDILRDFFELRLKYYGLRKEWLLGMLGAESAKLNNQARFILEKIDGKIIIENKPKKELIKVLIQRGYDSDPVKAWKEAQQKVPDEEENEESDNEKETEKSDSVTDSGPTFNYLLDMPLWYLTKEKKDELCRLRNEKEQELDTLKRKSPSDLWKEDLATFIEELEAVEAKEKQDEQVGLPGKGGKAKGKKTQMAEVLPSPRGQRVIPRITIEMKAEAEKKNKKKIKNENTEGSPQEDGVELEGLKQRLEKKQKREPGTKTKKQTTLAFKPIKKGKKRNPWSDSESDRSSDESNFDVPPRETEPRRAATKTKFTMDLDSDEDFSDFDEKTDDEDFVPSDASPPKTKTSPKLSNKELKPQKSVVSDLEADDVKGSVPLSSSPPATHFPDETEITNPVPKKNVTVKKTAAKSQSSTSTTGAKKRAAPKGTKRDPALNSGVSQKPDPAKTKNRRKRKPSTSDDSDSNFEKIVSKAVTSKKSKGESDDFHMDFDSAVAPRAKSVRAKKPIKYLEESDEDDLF
Description: Human myeloma cells were placed at plateau concentrations (4×10^6 cells/ml), and NES inhibitors were added at 25 μM for 20 hours. Cells were collected, washed in PBS, and fractionated by a method adapted from Li et al. (Li Y, Bor Y C, Misawa Y, Xue Y, Rekosh D, Hammarskjold M L. An intron with a constitutive transport element is retained in a Tap messenger RNA. Nature 2006; 443: 234-7). Separated fractions containing nuclei or precipitated cytosol were dissolved in 2% SDS buffer and assayed by SDS-PAGE Western blot analysis. Blots were probed with an anti-topo IIα Kis1 antibody (Millipore Corp.). Lead compounds were also tested to determine if nuclear export inhibition was specific to topo IIα protein. Cells grown at log-phase concentrations were also fractionated. […], CRM1-topo IIα complexes were isolated from cells by immunoprecipitation using a combination of both protein A and protein G magnetic beads according to the manufacturer's protocol (Miltenyi Biotec, Cologne, Germany). Co-immunoprecipitation was performed with 2 μg of anti-CRM1 antibody (Santa Cruz Biotechnology, Inc., Santa Cruz, Calif.). Immunoprecipitation samples were separated by SDS-PAGE, transferred to nitrocellulose membranes, and probed with anti-topo IIα Kis1 antibody (Millipore, Corp., Billerica, Mass.) and anti-mouse horseradish peroxidase secondary antibody.

[3] = target: T2, topo IIα (Homo sapiens, UniProt P11388); assay: Nuclear-cytoplasmic fractionation and Western blot for topo IIα; details: RPMI-H929 cells, 100 μM, 24 hours, relative to untreated controls
T2 construct: effect on the intracellular location of topo IIα in treated MM cells; endogenous in cells; host or cells: human multiple myeloma cells NCI-H929
T2 sequence (P11388 whole entry): as the sequence (P11388 whole entry, one chain of several) above

O=C1c2ccccc2C(=O)C1C(=O)C(c1ccccc1)c1ccccc1 [NCI-9138, 2-(diphenylacetyl)-1H-indene-1,3(2H)-dione]
IC50 [1]: 21.3 µM
Co-immunoprecipitation of CRM1 with topo IIα ([2]; 50 μM for 20 hours (FIG. 12 legend)): blocked
Binding of topo IIα to CRM1 (co-immunoprecipitation) ([2]; MM cells, 25 μM for 20 hours): prevented from binding to CRM1
Cytoplasmic level / nuclear localization of topo IIα, fractionation Western blot [3]: reduced cytoplasmic levels of topo IIα equivalent to that produced by the CRM-1 inhibitor ratjadone C

Reference: patent US9616051B2, “Drug targets to overcome de novo drug-resistance in multiple myeloma” (H. Lee Moffitt Cancer Center and Research Institute, Inc., priority 2008, dated 2017)
